Laboratory results published in patent publication US11389446B2, “Theranostic agents” (THE HONG KONG UNIVERSITY OF SCIENCE AND TECHNOLOGY, priority 2017, dated 2022).

Experiments:
Assay type in all cases: physicochemical
[1] = Anti-photobleaching study, five circles of heating-cooling; conditions: 100 μM, 808 nm 0.8 W/cm^2
Method: (§1) For the photostability study, PBS solutions (pH 7.4) of TPA-T-TQ ONPs and ICG were irradiated under 808-nm laser (0.8 W/cm^2), and the absorption spectra were measured at different time points. For the anti-photobleaching study, the temperatures of the sample solutions were recorded during five circles of heating and cooling. In one heating-cooling circle, the NIR laser first irradiated the samples for 5 min to reach a steady state, then the laser was removed and the samples were naturally cooled down to ambient temperature in 6 min.
(§2) Then, the anti-photobleaching properties of TPA-T-TQ ONPs and ICG were evaluated by alternative heating and cooling processes (the NIR laser first irradiated the samples for 5 min to heat them up, then the laser was removed, and the samples were naturally cooled down to ambient temperature in 6 min).

[2] = Photothermal performance in PBS under 808 nm laser; conditions: PBS pH 7.4, 100 μM, 808 nm laser 0.8 W/cm^2, 5 min
Method: The PBS solution (pH 7.4) of TPA-T-TQ ONPs and ICG in different concentrations were continuously exposed to NIR laser of 808 nm with a power intensity of 0.8 W/cm^2 for 5 min. The temperature was measured every 20 s and stopped until the temperature nearly reached a plateau. The corresponding IR thermal images were also recorded. To evaluate the photothermal conversion property, we quantitatively measured the temperature change of TPA-T-TQ ONP solution at different concentrations as a function of 808 nm laser (0.8 W/cm^2) irradiation time. As depicted in FIG. 9B, temperature increases very fast initially, and reaches a plateau after 3 min laser irradiation. It is noted that the eventual temperature at the plateau depends on the ONP concentration. The temperature increase of ONPs and ICG solutions upon exposure to 808 nm laser irradiation was compared. […] The difference in temperature elevation of the two samples at various irradiation times can be intuitively visualized from the infrared (IR) thermal images (FIG. 9A).

[3] = Photostability under continuous 808 nm laser irradiation; conditions: PBS pH 7.4, 808 nm laser 0.8 W/cm^2, 15 min
Method: as §1
(§3) For the RONS-stability study, two kinds of RONS were used, i.e., ONOO^− and .OH, which were prepared according to the literature. The absorption and photoluminescence spectra were recorded before and after addition of 0.4 mM of RONS. […] Then the photostability of TPA-T-TQ ONPs was evaluated along with ICG under continuous 808 nm laser irradiation (0.8 W/cm^2) by recording the apparent colors and absorption spectra after laser irradiation for different times. […]
as §2

[4] = RONS-stability study; conditions: PBS, ICG read at 780 nm
Method: For the RONS-stability study, two kinds of RONS were used, i.e., ONOO^− and .OH, which were prepared according to the literature. The absorption and photoluminescence spectra were recorded before and after addition of 0.4 mM of RONS. The stabilities of the contrast agents in terms of thermal and photothermal stabilities as well as photobleaching and RONS resistances are crucial for PAI/PTT applications in vivo because incorrect or misleading signals, weakened therapeutic efficacy, and harmful side effects can result if the structure of the agent is destroyed, especially in living systems. Thermogravimetric analysis (TGA) was first carried out to measure the thermal stability of TPA-T-TQ. The decomposition temperature for 5% weight loss of TPA-T-TQ was above 400° C. […] Then the photostability of TPA-T-TQ ONPs was evaluated along with ICG under continuous 808 nm laser irradiation (0.8 W/cm^2) by recording the apparent colors and absorption spectra after laser irradiation for different times. […]
Another important issue related to in vivo applications is the physiological stability against highly reactive molecules such as RONS. […] Therefore, the stability of TPA-T-TQ ONPs and ICG in the presence of two kinds of RONS, peroxynitrite (ONOO^−) and hydroxyl radical (.OH), were measured under physiological conditions. […]

[5] = Thermogravimetric analysis (TGA), thermal stability; conditions: heating rate 10° C./min, nitrogen atmosphere
Method: ^1H (400 MHz) and ^13C (100 MHz) nuclear magnetic resonance (NMR) spectra were recorded on a Bruker AV 400 spectrometer by using CDCl3 or DMSO-d6 as the solvent. High-resolution mass spectra (HRMS) were measured on a GCT premier CAB048 mass spectrometer in MALDI-TOF mode. Thermogravimetric analysis (TGA) measurement was conducted on a TA TGA Q5000 with a heating rate of 10° C./min under nitrogen atmosphere. The UV-vis-NIR absorption spectra were performed on a PerkinElmer Lambda 365 spectrophotometer. The photoluminescence (PL) spectra were conducted using a Horiba Fluorolog-3 spectrofluorometer. Dynamic light scattering (DLS) was performed on a 90 plus particle size analyzer. Transmission electron microscopy (TEM) images were obtained on a JEM-2010F transmission electron microscope with an accelerating voltage of 200 kV.
as §3

[6] = after two circles of heating-cooling

Row | temperature elevation relative to the original value [1, 6] | temperature elevation ΔT after two circles [1, 6] | temperature elevation ΔT, original value ([1]; first heating) | temperature increase ΔT in 5 min [2] | colors and absorption spectra / maximal absorption intensity after NIR light irradiation [3] | maximal absorption intensity relative to the original value after .OH ([4]; 400 μM .OH for 1 min) | maximal absorption intensity relative to the original value after ONOO^− ([4]; 400 μM ONOO^− for 1 min) | decomposition temperature for 5% weight loss [5] | Compound
1 | about 20% | ~10 °C | ~44 °C | ~43 °C | nearly drops to zero | ~4% | about 60% |  | CC1(C)C(/C=C/C=C/C=C/C=C2\N(CCCCS(=O)(=O)O)c3ccc4ccccc4c3C2(C)C)=[N+](CCCCS(=O)(=O)[O-])c2ccc3ccccc3c21 [ICG, indocyanine green]
2 |  |  |  |  |  |  |  | above 400 °C | Cc1ccc(N(c2ccc(-c3ccc(-c4c5nsnc5c(-c5ccc(-c6ccc(N(c7ccc(C)cc7)c7ccc(C(C)(C)C)cc7)cc6)s5)c5nc(-c6ccccc6)c(-c6ccccc6)nc45)s3)cc2)c2ccc(C(C)(C)C)cc2)cc1 [TPA-T-TQ, 4,4′-((6,7-Diphenyl-[1,2,5]thiadiazolo[3,4-g]quinoxaline-4,9-diyl)bis(thiophene-5,2-diyl))bis(N-(4-(tert-butyl)phenyl)-N-(p-tolyl)aniline)]
